The values below come from paper PMC7026418, “The kinase polypharmacology landscape of clinical PARP inhibitors” (Scientific Reports, 2020).

Where two headings read alike, the source gives them in different places.

Among the targets are EPHA4 (Homo sapiens, UniProt P54764); CDK2 (Homo sapiens, UniProt P24941); DYRK1A (Homo sapiens, UniProt Q13627).
Holding throughout (experiment): biochemical
Set-up in all cases: DiscoveRx KINOMEscan active site-directed competition binding; percent of control kinase bound to immobilised ligand

For the next assay, the target named is T1, MAK (Homo sapiens, UniProt P20794).
T1 sequence (P20794 1-623): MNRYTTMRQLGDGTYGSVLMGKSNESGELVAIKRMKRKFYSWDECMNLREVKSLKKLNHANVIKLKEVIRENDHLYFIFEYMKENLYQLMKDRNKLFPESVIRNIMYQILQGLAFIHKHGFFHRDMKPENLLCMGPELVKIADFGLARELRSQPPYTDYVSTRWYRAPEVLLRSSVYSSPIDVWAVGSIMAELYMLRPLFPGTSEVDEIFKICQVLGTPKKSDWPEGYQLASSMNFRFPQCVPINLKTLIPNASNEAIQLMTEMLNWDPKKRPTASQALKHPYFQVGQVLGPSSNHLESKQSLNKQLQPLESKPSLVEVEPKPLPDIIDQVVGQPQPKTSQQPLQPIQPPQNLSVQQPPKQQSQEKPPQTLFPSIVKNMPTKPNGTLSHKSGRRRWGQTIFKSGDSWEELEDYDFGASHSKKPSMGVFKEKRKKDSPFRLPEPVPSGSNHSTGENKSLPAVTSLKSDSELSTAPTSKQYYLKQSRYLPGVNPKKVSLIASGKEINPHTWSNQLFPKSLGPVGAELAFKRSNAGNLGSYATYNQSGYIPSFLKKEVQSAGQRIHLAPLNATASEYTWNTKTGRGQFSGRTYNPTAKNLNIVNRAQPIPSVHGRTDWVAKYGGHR

The target in another assay is T2, FLT3(R834Q) (Homo sapiens, UniProt P36888, R834Q).
T2 sequence (P36888 1-993 R834Q): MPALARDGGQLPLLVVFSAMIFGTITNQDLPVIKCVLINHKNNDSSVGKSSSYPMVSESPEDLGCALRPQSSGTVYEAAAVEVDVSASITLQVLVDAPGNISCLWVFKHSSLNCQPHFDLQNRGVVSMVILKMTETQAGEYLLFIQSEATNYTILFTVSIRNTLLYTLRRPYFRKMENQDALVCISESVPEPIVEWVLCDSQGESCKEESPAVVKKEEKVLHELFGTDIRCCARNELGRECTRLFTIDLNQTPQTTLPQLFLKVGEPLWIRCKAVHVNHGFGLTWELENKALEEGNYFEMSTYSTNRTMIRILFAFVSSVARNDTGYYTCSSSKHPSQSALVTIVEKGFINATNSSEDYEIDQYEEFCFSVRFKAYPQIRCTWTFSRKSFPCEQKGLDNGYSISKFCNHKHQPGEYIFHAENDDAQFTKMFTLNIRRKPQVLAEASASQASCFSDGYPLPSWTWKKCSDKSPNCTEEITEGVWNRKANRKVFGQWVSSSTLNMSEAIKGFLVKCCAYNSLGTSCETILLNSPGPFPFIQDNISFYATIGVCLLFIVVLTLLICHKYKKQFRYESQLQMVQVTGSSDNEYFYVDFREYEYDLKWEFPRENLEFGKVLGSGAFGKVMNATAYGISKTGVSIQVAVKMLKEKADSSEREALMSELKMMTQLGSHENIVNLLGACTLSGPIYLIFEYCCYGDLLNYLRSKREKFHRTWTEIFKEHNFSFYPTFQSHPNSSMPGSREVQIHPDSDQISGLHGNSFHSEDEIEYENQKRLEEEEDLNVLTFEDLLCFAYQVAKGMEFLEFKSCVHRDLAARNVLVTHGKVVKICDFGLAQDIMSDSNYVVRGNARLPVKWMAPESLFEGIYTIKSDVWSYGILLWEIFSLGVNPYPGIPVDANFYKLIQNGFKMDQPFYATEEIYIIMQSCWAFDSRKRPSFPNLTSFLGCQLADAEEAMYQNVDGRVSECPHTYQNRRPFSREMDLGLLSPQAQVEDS

A further assay concerns the target T3, FAK (Homo sapiens, UniProt Q05397).
T3 construct: gene PTK2

For the next assay, the target named is T4, DCAMKL2 (Homo sapiens, UniProt Q8N568).
T4 construct: gene DCLK2
T4 sequence (Q8N568 1-766): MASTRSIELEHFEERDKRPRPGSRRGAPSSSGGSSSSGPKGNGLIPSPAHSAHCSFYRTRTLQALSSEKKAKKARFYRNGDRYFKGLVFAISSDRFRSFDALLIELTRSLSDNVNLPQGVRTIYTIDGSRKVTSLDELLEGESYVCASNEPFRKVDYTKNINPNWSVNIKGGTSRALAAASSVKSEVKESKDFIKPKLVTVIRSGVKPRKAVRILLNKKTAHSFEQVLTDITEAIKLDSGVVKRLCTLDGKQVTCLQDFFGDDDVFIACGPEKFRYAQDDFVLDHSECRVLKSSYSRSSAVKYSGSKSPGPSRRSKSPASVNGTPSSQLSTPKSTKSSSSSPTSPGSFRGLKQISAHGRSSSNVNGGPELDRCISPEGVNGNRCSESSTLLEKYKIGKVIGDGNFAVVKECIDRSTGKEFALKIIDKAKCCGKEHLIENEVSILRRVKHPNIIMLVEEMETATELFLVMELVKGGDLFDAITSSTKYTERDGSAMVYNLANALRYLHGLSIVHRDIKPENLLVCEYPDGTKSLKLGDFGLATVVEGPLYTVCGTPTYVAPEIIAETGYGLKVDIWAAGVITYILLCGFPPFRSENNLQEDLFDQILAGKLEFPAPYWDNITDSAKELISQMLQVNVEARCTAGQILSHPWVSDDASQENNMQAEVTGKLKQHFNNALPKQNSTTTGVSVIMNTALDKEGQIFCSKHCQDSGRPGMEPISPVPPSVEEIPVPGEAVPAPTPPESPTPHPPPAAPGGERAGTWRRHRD

Where [1] appears, read: read-out: Niraparib (MK-4827) / %Ctrl @ 10000nM.
Where [2] appears, read: read-out: Olaparib / %Ctrl @ 10000nM.
[3] abbreviates: read-out: Rucaparib / %Ctrl @ 10000nM, binding competition, % of control.
The mark [4] stands for this setting: read-out: Talazoparib (BMN 673) / %Ctrl @ 10000nM.

T3 sequence (Q05397 whole entry): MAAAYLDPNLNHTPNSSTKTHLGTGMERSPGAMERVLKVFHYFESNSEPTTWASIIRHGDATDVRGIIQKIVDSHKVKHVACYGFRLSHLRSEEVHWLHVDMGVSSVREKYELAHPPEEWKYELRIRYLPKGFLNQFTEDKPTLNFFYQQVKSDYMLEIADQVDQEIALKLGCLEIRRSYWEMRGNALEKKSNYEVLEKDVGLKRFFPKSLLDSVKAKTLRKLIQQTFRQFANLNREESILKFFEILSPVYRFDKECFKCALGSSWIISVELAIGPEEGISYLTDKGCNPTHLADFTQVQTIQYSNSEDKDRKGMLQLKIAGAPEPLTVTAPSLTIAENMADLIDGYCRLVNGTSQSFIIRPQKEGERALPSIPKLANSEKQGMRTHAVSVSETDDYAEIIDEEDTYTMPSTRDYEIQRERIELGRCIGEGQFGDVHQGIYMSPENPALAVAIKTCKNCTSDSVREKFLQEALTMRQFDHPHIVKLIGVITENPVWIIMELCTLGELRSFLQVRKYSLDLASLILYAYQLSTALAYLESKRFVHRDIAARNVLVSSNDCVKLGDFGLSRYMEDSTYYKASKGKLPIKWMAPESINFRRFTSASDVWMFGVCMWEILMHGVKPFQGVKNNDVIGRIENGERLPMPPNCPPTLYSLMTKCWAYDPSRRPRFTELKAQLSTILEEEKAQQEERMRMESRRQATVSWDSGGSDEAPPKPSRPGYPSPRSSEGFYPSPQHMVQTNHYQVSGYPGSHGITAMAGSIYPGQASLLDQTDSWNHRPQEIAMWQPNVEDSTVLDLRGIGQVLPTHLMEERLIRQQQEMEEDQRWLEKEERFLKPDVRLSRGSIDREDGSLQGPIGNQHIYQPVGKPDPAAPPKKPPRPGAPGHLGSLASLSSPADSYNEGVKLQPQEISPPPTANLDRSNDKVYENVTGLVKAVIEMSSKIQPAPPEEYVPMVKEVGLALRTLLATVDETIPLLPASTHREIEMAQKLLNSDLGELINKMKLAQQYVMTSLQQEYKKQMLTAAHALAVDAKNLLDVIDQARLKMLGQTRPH
EPHA4, sequence (P54764 whole entry): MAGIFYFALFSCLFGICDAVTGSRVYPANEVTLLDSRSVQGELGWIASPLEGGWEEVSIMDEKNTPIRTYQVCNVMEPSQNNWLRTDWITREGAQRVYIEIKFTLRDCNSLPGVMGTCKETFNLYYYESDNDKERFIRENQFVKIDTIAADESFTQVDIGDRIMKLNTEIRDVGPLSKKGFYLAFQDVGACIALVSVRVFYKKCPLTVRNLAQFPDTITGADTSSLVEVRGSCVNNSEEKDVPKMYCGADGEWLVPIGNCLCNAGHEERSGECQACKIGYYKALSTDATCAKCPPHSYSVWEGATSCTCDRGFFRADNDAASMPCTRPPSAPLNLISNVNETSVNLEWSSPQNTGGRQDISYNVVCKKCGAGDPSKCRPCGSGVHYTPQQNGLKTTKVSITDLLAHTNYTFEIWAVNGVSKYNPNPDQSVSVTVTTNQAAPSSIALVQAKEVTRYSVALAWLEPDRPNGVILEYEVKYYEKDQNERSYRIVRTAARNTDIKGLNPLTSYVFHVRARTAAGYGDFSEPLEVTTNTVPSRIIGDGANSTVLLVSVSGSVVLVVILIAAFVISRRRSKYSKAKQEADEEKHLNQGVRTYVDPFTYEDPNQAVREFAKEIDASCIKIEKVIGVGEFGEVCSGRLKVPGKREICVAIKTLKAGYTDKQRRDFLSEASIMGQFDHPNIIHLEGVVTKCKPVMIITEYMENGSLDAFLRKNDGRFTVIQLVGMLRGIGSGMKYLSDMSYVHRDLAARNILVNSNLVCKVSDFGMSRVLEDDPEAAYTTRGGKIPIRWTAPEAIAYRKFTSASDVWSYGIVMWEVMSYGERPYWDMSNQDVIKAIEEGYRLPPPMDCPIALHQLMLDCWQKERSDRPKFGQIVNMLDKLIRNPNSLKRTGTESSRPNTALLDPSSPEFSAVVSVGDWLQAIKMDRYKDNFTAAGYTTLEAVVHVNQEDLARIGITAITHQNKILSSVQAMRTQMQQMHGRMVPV

For the compound `NC(=O)c1cccc2cn(-c3ccc([C@@H]4CCCNC4)cc3)nc12` [Niraparib], the percent of control binding at 10 µM is 83% at EPHA4 (setting [1]); 100% at CDK2 (setting [1]); 0.2% on DYRK1A (setting [1]); 56% at MAK (setting [1]); 100% on FLT3(R834Q) (setting [1]); 100% on FAK (setting [1]). For the same compound, the percent of control binding at 10 µM at DCAMKL2 (setting [1]) was 83%.

Turning to `O=C(c1cc(Cc2n[nH]c(=O)c3ccccc23)ccc1F)N1CCN(C(=O)C2CC2)CC1` [Olaparib], the percent of control binding at 10 µM at EPHA4 (setting [2]) came to 92%; at CDK2 (setting [2]), 93%; on DYRK1A (setting [2]) it was 95%; on MAK (setting [2]) it was 77%; at FLT3(R834Q) (setting [2]), 79%; on FAK (setting [2]) it was 100%. Further, the percent of control binding at 10 µM at DCAMKL2 (setting [2]) amounted to 100%.

For `CNCc1ccc(-c2[nH]c3cc(F)cc4c3c2CCNC4=O)cc1` [Rucaparib], the percent of control binding at 10 µM on EPHA4 (setting [3]) was 97%; on CDK2 (setting [3]) it was 98%; at DYRK1A (setting [3]), 0.4%; on MAK (setting [3]), 81%; on FAK (setting [3]), 100%; on DCAMKL2 (setting [3]), 87%. The “Rucaparib / %Ctrl @ 10000nM” value on FLT3(R834Q) (binding competition, % of control) was 81%.

As for `Cn1ncnc1[C@H]1c2n[nH]c(=O)c3cc(F)cc(c23)N[C@@H]1c1ccc(F)cc1` [Talazoparib], the percent of control binding at 10 µM on EPHA4 (setting [4]) came to 100%; on CDK2 (setting [4]), 96%; at DYRK1A (setting [4]), 94%; at MAK (setting [4]), 93%; at FLT3(R834Q) (setting [4]) it was 100%; at FAK (setting [4]), 100%. At DCAMKL2 (setting [4]), the percent of control binding at 10 µM is 100%.
